Laboratory results: US8063109B2, “Formulations for parenteral administration of (e)-2, 6-dialkoxystyryl 4-substituted benzylsulfones” (Onconova Therapeutics, Inc., priority 2004, dated 2011)

How the values were obtained:
[1] = system: Patients With Advanced Solid Tumors; assay: Phase I dose escalation study, 2-hour intravenous infusion; type: in vivo, human
Description: Safety and efficacy of this formulation, for example, is tested in a Phase I clinical study, at The Johns Hopkins Sidney Kimmel Cancer Center, Baltimore, Md., i.e., “Phase I Dose Escalation Study Of ON 01910.Na By 2-Hour Intravenous Infusion In Patients With Advanced Solid Tumors”. U.S. FDA IND #66,780. The objectives of this study include an identification of a maximum tolerated dose (MTD) and a recommended dose for further clinical studies. A further object of the study is to establish a safety profile, i.e., to observe any toxicities. The patients in this study have advanced solid tumors that have failed conventional treatments, or for which no approved therapy exists. An object of the study is particularly to observe efficacy (anti-cancer effects).
The patients are administered the preferred formulation described herein of the ON 01910.Na drug (properly diluted in intravenous solution) over a two hour period, twice per week, for three weeks. The patients are subsequently observed for […], to constitute a four week treatment cycle.
This study started with a single patient at the first starting dose level of 80 mg per patient. If there is no grade 2 or worse drug-related toxicity (side effects) observed in the first four week cycle, then another patient may be dosed at the next higher dose level. The first patient was dosed at 80 mg per patient on Aug. 3, 2004. […]

[2] = Long term stability of ON 01910.Na 75 mg/mL in 100% PEG-400 for clinical use (HPLC); type: physicochemical
Description: ON 01910.Na IV solution was manufactured at a concentration of 75 mg/mL in 100% PEG-400. The finished product consisted of 3 mL of drug product aseptically filled into presterilized 5 mL vials. The manufacturing was in compliance with current Good Manufacturing Practices regulations.
(a) HPLC—Chromatography is performed using a Phenomenex Luna C-18 (2), 5 micron (4.6 mm×250 mm, PN 00G-4252-E0) column at ambient conditions. The mobile phase used is 60%-0.1% trifluoroacetic acid in water; 40% acetonitrile. The flow rate is set at 2.0 ml/min. Injection volume is 50 μL. Detection is accomplished by means of a UV/VIS detector at 230, 254, and 320 nm. Instrument control and data acquisition is facilitated using a Waters Millennium (V 2.15) software package. The external calibration is obtained using ON 01910.Na standard solutions prepared in 50:50 acetonitrile:water. This analytical method was validated.

[3] = system: tumors; assay: Synergy with chemotherapeutic agents; type: in vivo; settings: often inducing complete regression of tumors

SMILES: COc1cc(OC)c(/C=C/S(=O)(=O)Cc2ccc(OC)c(NCC(=O)[O-])c2)c(OC)c1.[Na+] [ON 01910.Na, (E)-2,4,6-trimethoxystyryl-3-carboxymethylamino-4-methoxybenzylsulfone]
- drug-related toxicity ([1]; 80 to 2080 mg per patient, 2 hour iv infusion, twice per week for three weeks, four week cycle): no grade 2 or worse toxicities
- dose safely administered ([1]; iv 2 hour infusion, twice per week, for 3 weeks, ten days off): ≥ 2080 mg
- shelf stability ([2]; 75 mg per ml in 100% PEG-400): shelf-stable for over one year
- long term stability ([2]; 100% PEG-400 formulation for clinical use): extremely stable

SMILES: COc1cc(OC)c(/C=C/S(=O)(=O)Cc2ccc(OC)c(NCC(=O)O)c2)c(OC)c1 [Compound 4, (E)-2,4,6-Trimethoxystyryl-3-(carboxymethylamino)-4-methoxybenzylsulfone]
- synergy with chemotherapeutic agents [3]: strong synergy
